# Values of other authors in paper PMC9232612, “A phase 1b randomised controlled trial of a glucagon-like peptide-1 and glucagon receptor dual agonist IBI362 (LY3305677) in Chinese patients with type 2 diabetes” (Nature Communications, 2022).
# Key:
# [1] = tested on: patients with T2D; details: daily-dose, Japanese patients with T2D; cited from earlier work
# Description: Several GLP-1 and glucagon dual agonists have shown either glycaemic control or weight loss benefit in various settings. […] SAR425899, a […] GLP-1 and glucagon receptor dual agonist, achieved placebo-adjusted mean HbA1c level reductions up to 0.75% in patients with overweight or obesity and T2D[11].
# [2] = phase 2a, after 49 days of drug exposure; ref Parker VER et al. JCEM 2021;105(3):803-20; cited from earlier work
# Protocol: page 3: doses of IBI362 (4.5 and 6 mg). It would be helpful to provide the time course of the GI adverse events to ascertain whether they occurred during the up-titration phase and whether the symptoms persisted during the 12 weeks. Only one participant in the IBI362 4.5 mg cohort withdrew from the study due to decreased appetite. The cardiovascular safety profile of IBI362 reported in this manuscript raised some safety concerns and will be addressed in greater detail herein. Cardiovascular disorders were reported in 5 participants receiving IBI362 compared with one in each of the placebo and ...
substance,measurement,setting,value
Cotadutide,reduction in body weight from baseline to day 50 (up to),[1],up to 3.3%
same,mean change in diastolic BP,[2],+1.16 mm Hg
same,mean change in systolic BP,[2],-2.8 mm Hg
same,mean increase in heart rate,[2],+7.1 BPM
